Assay results reported in paper PMC8365604 (Journal of Medicinal Chemistry, 2021).
≈ marks a conversion by molar mass, not a printed value. Structures can show the parent of a compound that is named as a salt.

Experiment: physchem

| solubility [µg/mL] | Structure (SMILES) |
| --- | --- |
| 10.6 (≈ 39.5 µM) | O=C(O)c1ccc(-c2ccncn2)cc1C1CCCC1 [compound 56, 2-Cyclopentyl-4-(pyrimidin-4-yl)benzoic Acid] |
| 60 (≈ 191 µM) | O=C(O)c1ccc2c3c1cccc3c(=O)n1c3ccccc3nc21 [STO-609, 7-oxo-7H-benzimidazo[2,1-a]benz[de]isoquinoline-3-carboxylic acid, reference compound] |
| 19.4 | O=C(O)c1ccc(-c2ccnc(Nc3ccccc3)n2)cc1C1CCCC1 [compound 62, 2-Cyclopentyl-4-(2-(phenylamino)pyrimidin-4-yl)benzoic Acid Hydrochloride] |
